Where “and” joins values, the source holds several entries; their conditions need not be identical. Equal entries are not always repeated. Where two headings read alike, the source gives them in different places.
Assays:
[1] = tested on: Rats: Wistar femelles; test: Atherogenic diet (modified Aubert technique): mortality, body weight, tolerance, overall score; type: in vivo, Rat Wistar; conditions: 100 mg/kg; for taux de mortalité: lots of 15 rats on atherogenic diet; for Score Total: sum of Biochimie, Risque athérogène, Macroscopie, Histologie
Procedure: (§1) • - Rats: Wistar femelles, E.O.P.S. en provenance de l'élevage EVIC-CEBA. • - Poids corporel: 160 180 g au départ de l'étude • - Alimentation: UAR A03, enrichi en cholestérol (0,5 %) et en Acide chloique (0,5 %). • - Eau de boisson: eau de ville. • - 15 animaux par lot et par cage MAKROLON SAFI® de 59 x 38,5 cm sur litière de copeaux de bois blanc dépoussiérés. • - Cages placées dans un module animalerie climatisé (20°C * 1°C), à l'humidité constante (50 % ± 10 %). Durée d'éclairement: 12 heures par jour (7 h à 19 h). • - Administration des produits: Après 15 jours de régime athéromateux, on leur administre par voie orale pendant 4 jours 250 000 Ul/kg de vitamine D2 (Stérogyl 15 H) en solution dans l'huile d'olive. On administre ensuite les produits à étudier pendant 4 semaines dès la fin de l'administration de l'agent lésionnel.
L'étude porte sur 5 Lots de 15 rats (tableau N° IV)
• - Le comportement et l'[…] pondérale des animaux sont étudiés par l'observation quotidienne et les pesées hebdomadaires. L'étude de l'évolution pondérale ne montre pas de différence significative entre les différents lots. C'est un indice de bonne tolérance du traitement. • - La moralité est notée dans chaque lot; elle peut atteindre 30 % des animaux ce qui nécessite des lots de 15 animaux. L'administration chronique de 100 mg/kg de Clofibrate correspond à la dose maximale tolérée par le Rat sain selon nos expériences personnelles.
Les scores obtenus par les différents produits étudiés sont les suivants (Tableau V)

[2] = tested on: Rats: Wistar femelles; test: Atherogenic diet (modified Aubert technique): histopathological examination; type: in vivo, Rat Wistar; conditions: 100 mg/kg; three parameters scored relative to Clofibrate
Text: La technique utilisée est celle, légèrement modifiée, de AUBERT D., FERAUD J.C., LACAZE B., PEPINO., PANAK E. et PODESTA M. "Athérogénèse expérimentale chez le Rat Wistar". ATHEROSCLEROSIS 2Q (1974) 263 - 280.
as §1
Les aortes, les foies et les coeurs sont fixés au Bouitaqueux et inclus à la paraffine après passage par les alcools à concentration croissante et par le toluène.
Les foies sont colorés par la technique à l'hématéine-éosine. Les aortes sont colorées par: • - la technique à l'orcéine - vert lumière afin de mettre en évidence les altérations structurales des lames élastiques. • - la technique à l'acide périodique plus réactif de Schiff pour déceler les dépôts de mucopolysaccharides, • - la technique à l'hématéine plus éosine afin de mettre en évidence les dépôts de calcium.
L'intensité des altérations observées et le degré d'athéromatose sont indiquées par l'un des signes:
• - Pas d'athéromatose 0 • = Très léger degré d'athéromatose 0,5 • + Léger degré d'athéromatose 1 • ++ Moyen degré d'athéromatose 2 • +++Important degré d'athéromatose 3
Les zones athéromateuses sont dénombrées sur une longueur identique pour chacune des aortes examinées. […]

[3] = Acute toxicity, single administration, digestive (oral) route; type: in vivo; conditions: mouse, in vivo, po
Text: (§2) Souris SWISS mâles et femelles de 22 à 25g de poids corporel. Animaux EOPS. (exempte d'organisme pathogène spécifique), en provenance de l'élevage CERJ., 53680 LE GENEST et acclimatés au moins 8 jours à l'animalerie du laboratoire.
(§3) Sauf mention contraire précisée dans les tableaux de résultats, 10 animaux par dose, sexe et cage en MAKROLON SAFI@ de 40/25 cm. Litière de copeaux de bois blanc. Alimentation standard pour rats et souris UAR et eau ordinaire à volonté.
(§4) Ils sont administrés sans jeûne préalable: • - par voie digestive (intubation gastrique par sonde oesophagienne métallique) à raison de 0,5 ml ou 1 ml pour 20 g de poids corporel d'une suspension aqueuse à 3p.100 en gomme arabique du dérivé testé. • - par voie intrapéritonéale à raison de 0,5 ml ou 1 ml pour 20 g d'une suspension du dérivé testé dans le soluté isotonique de chlorure de sodium à 3p.100 en gomme arabique.
(§5) Pendant 6 heures après l'administration unique, puis tous les jours pendant 15 jours.
(§6) S'il y a lieu, les doses létales cinquante (DL50) sont calculées selon les méthodes de: • - Behrens et Karber (B.K.) • - Miller et Tainter (M.T.), cette dernière méthode permettant d'attribuer, pour le seuil de probabilité de P = 0,05 un intervalle de confiance aux DL 50.
(§7) En outre, sont déterminées les DLO et DL100. • - DLO = DMT: Dose Maxima toujours tolérée • - DL100 = DmM: Dose minima toujours Mortelle.

[4] = tested on: Souris SWISS; test: as above; type: in vivo; conditions: for létalité, symptomatologie toxique: 10.000 mg/kg VO, single dose, 10 souris mâles et femelles
Text: as §2, §3, §4, §5, §6, §7

Structure (SMILES) | taux de mortalité [1] | Score Total [1] | Histologie score [2] | LD50 at 360 h ([3]; VO, souris mâles et femelles, read-out: DL50) [mg/kg] | létalité, symptomatologie toxique [4] | létalité, symptomatologie toxique ([4]; listed as dérivé) | DLO ([4]; VO, souris mâles et femelles) [mg/kg] | DL100 ([4]; mouse, in vivo, 21600 min) [mg/kg] | LD50 at 360 h ([3]; DL50) [mg/kg] | DL50 ([4]; mouse, in vivo, po, 360 h) [mg/kg]
COc1ccc(C(=O)CC2(O)C(=O)c3ccccc3C2=O)cc1OC [Produit de l'invention, 2-[(3,4-dimethoxybenzoyl)methyl] 2-hydroxy 1,3-dioxo indane] | 2/15 | 10.46 | 1.3 and 1.32 | > 10000 | ni létalité, ni symptomatologie toxique | n'est pas toxique | ≥ 10.000 | > 10000 | – | –
CCOC(=O)C(C)(C)Oc1ccc(Cl)cc1 [Clofibrate] | 4/15 | 13.00 | 3.00 | – | – | – | – | – | 2500 ± 235 | 2650 ± 190

Source: patent publication EP0167553B1, “NEW THERAPEUTICAL APPLICATION OF AN INDANE DIONE DERIVATIVE AND PHARMACEUTICAL COMPOSITIONS INTENDED TO SAID UTILIZATION” (priority 1983, dated 1985)
